The results in this text go back to PubChem BioAssay (NCI).

Test systems include ACHN renal; CAKI-1 renal; COLO 205 colon; HL-60(TB) leukemia; HOP-62 NSCLC; HT29 colon; KM12 colon; MOLT-4 leukemia; NCI-H226 lung; RPMI-8226 leukemia; SF-539 CNS; SNB-75 CNS; SR leukemia; UACC-257 melanoma; RXF 393 renal.
Test in all cases: growth of human tumour cells (NCI), 48 h

SMILES strings stand for the structures.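 Where inhibition never reached the appropriate level, the endpoint shown equals the highest concentration tested. Otherwise, values were interpolated linearly from a five-concentration, 48-hour dose response in 96-well plates. TGI: concentration producing complete growth inhibition.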

`CN(C)Cc1[nH]c2ccccc2c1C(=O)c1ccccc1`: the TGI in the assay with ACHN renal, in the assay with CAKI-1 renal, in the assay with COLO 205 colon, in the assay with HL-60(TB) leukemia, in the assay on HOP-62 NSCLC and in the assay with HT29 colon was greater than 100 µM each time. Also, the TGI was greater than 100 µM with KM12 colon; greater than 100 µM with MOLT-4 leukemia; greater than 100 µM in the assay on NCI-H226 lung; greater than 100 µM in the assay on RPMI-8226 leukemia; greater than 100 µM in the assay on SF-539 CNS; 74.9 µM with SNB-75 CNS. The TGI with SR leukemia and with UACC-257 melanoma was greater than 100 µM in each case.

For `Cc1ccccc1NC(=O)CSc1nnc(Cc2ccccc2)o1`, the TGI in the assay on ACHN renal, in the assay on COLO 205 colon, in the assay with HOP-62 NSCLC, with HT29 colon, in the assay on KM12 colon and with MOLT-4 leukemia was greater than 100 µM throughout. The TGI in the assay on NCI-H226 lung, in the assay with RPMI-8226 leukemia, in the assay with RXF 393 renal, with SF-539 CNS, with SNB-75 CNS and with UACC-257 melanoma was greater than 100 µM in each case.

As to `CC(=O)C1=NN(c2ccccc2)C2(S1)SC(c1ccccc1)(c1ccccc1)c1ccccc12` (configuration not stated), the TGI in the assay on ACHN renal, in the assay on COLO 205 colon, in the assay with HL-60(TB) leukemia, in the assay with HOP-62 NSCLC, with HT29 colon and in the assay with KM12 colon was greater than 100 µM each time. Further, the TGI is greater than 100 µM in the assay on MOLT-4 leukemia; greater than 100 µM with NCI-H226 lung; greater than 100 µM in the assay with RPMI-8226 leukemia; 65.7 µM with RXF 393 renal; greater than 100 µM in the assay on SF-539 CNS; 71.1 µM with SNB-75 CNS. The TGI in the assay on SR leukemia and in the assay with UACC-257 melanoma was greater than 100 µM in each case.

Take `COc1ccc(C2C(Cl)C(=O)N2NC(=O)c2ccccc2O)cc1OC` (configuration not stated): the TGI in the assay on ACHN renal, with HL-60(TB) leukemia, in the assay with HT29 colon, in the assay with KM12 colon, in the assay on MOLT-4 leukemia and in the assay on NCI-H226 lung was greater than 100 µM in each case. Further, the TGI with RXF 393 renal, in the assay with SF-539 CNS and in the assay with UACC-257 melanoma was greater than 100 µM throughout.

`O=C1c2ccccc2C(=O)c2c(O)c(NCCNCCO)cc(O)c21`: the TGI was found to be 8.93 µM in the assay on ACHN renal; 14.2 µM with CAKI-1 renal; 14.1 µM in the assay with HL-60(TB) leukemia; 11.5 µM in the assay on HOP-62 NSCLC; 11.5 µM with HT29 colon; 15.7 µM with KM12 colon. The TGI with MOLT-4 leukemia is 10.4 µM; in the assay on NCI-H226 lung, 14.9 µM; with RPMI-8226 leukemia it was 21.4 µM; in the assay on RXF 393 renal, 13.4 µM; in the assay with SF-539 CNS, 14.4 µM; with SNB-75 CNS, 17.9 µM. Moreover, the values for the TGI in the assay on SR leukemia and in the assay on UACC-257 melanoma were 9.04 µM and 19.6 µM, respectively.

`Cc1nc2nn(C)cc2c(=O)n1/N=C/c1ccccc1`: the TGI with ACHN renal, with COLO 205 colon, with HL-60(TB) leukemia, in the assay on HOP-62 NSCLC, with HT29 colon and with KM12 colon was greater than 100 µM in each case. Further, the TGI with MOLT-4 leukemia, with NCI-H226 lung, in the assay on RPMI-8226 leukemia, with RXF 393 renal, in the assay on SF-539 CNS and in the assay with SNB-75 CNS was greater than 100 µM in each case. The TGI in the assay with SR leukemia and with UACC-257 melanoma was greater than 100 µM in each case.

On to `CC[C@H](C)[C@H]1NC(=O)[C@@H](NC(=O)[C@@H](CC(C)C)N(C)C(=O)C2CCCN2C(=O)[C@H](C)O)[C@@H](C)OC(=O)[C@H](Cc2ccccc2)N(C)C(=O)[C@@H]2CCCN2C(=O)[C@H](CC(C)C)NC(=O)[C@@H](C)C(=O)[C@H](C(C)C)OC(=O)C[C@@H]1O` (some centres not stated), for which the TGI in the assay on ACHN renal is less than 0.00625 µM; with COLO 205 colon, 0.0769 µM; with HL-60(TB) leukemia, greater than 62.5 µM; with HOP-62 NSCLC it was 0.0639 µM; with HT29 colon, 0.0205 µM; in the assay with KM12 colon, less than 0.00625 µM. Also, the TGI in the assay with MOLT-4 leukemia was greater than 62.5 µM; with NCI-H226 lung it was 0.00705 µM; with RXF 393 renal, 0.0179 µM; in the assay on SNB-75 CNS it was less than 0.00625 µM; in the assay with UACC-257 melanoma it was less than 0.00625 µM.

Take `COc1nc(OC)nc(Sc2ccc(Sc3ccc(Sc4nc(OC)nc(OC)n4)cc3)cc2)n1`: the TGI in the assay on ACHN renal, in the assay on CAKI-1 renal, with COLO 205 colon, in the assay with HL-60(TB) leukemia, in the assay on HT29 colon and in the assay with KM12 colon was greater than 100 µM in each case. Moreover, the TGI with MOLT-4 leukemia, with NCI-H226 lung, in the assay with RPMI-8226 leukemia, in the assay on RXF 393 renal, with SF-539 CNS and in the assay with SNB-75 CNS was greater than 100 µM in each case. The TGI in the assay with SR leukemia and in the assay with UACC-257 melanoma was greater than 100 µM throughout.
